Measured values from US11472803B2, “7-substituted 1-aryl-naphthyridine-3-carboxylic acid amides and use thereof” (Bayer Aktiengesellschaft, priority 2016, dated 2022).
pEC50: −log10 of the molar value.

Target: T1, human M2 receptor (Homo sapiens, UniProt P08172)
T1 construct: expressed in transfected cells; host or cells: CHO-DUKX (CHO-DUKX-M2-GIRK)
T1 sequence (P08172 1-466): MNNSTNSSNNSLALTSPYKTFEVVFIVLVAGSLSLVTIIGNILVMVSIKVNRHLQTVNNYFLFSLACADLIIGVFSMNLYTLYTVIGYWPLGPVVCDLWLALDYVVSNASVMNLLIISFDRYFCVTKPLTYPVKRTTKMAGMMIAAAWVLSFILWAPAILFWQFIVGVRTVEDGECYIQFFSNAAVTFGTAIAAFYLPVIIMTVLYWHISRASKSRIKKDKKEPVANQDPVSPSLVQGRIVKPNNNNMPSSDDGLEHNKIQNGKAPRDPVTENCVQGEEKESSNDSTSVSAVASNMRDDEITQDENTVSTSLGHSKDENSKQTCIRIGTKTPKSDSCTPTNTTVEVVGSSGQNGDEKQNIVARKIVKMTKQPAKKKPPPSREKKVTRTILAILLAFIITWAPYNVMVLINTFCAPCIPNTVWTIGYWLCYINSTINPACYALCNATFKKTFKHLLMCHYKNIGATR
Assay: Functional M2-GIRK1/4 activation test: allosteric potency (EC50) and efficiency at EC20 acetylcholine
Assay type: cell-based
Settings: CHO-DUKX-M2-GIRK cells; for pEC50: voltage-sensitive dye, acetylcholine at EC20, in some cases mean of two or more determinations; for Emax: boosting of the acetylcholine effect at EC20 acetylcholine concentration
How it was run: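 Positive allosteric modulation measured as boosting of an EC20 acetylcholine response: hyperpolarization via GIRK1/4 in CHO-DUKX-M2-GIRK cells, monitored by membrane-potential dye fluorescence over 60 s after agonist, compound preadded. Hill-function fit gives EC50 and efficiency.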

Structure (SMILES)	pEC50	Emax [%]
O=C(NC(C(F)(F)F)C(F)(F)F)c1cn(-c2c(F)cc(F)cc2F)c2nc(N3CCCC[C@@H]3CO)c(F)cc2c1=O [Example 188, 6-Fluoro-N-(1,1,1,3,3,3-hexafluoropropan-2-yl)-7-[(2R)-2-(hydroxymethyl)piperidin-1-yl]-4-oxo-1-(2,4,6-trifluorophenyl)-1,4-dihydro-1,8-naphthyridine-3-carboxamide]	7.59	97
O=C(NC(C(F)(F)F)C(F)(F)F)c1cn(-c2c(F)cc(F)cc2F)c2nc(N3CCC(O)(CO)CC3)c(F)cc2c1=O [Example 189, 6-Fluoro-N-(1,1,1,3,3,3-hexafluoropropan-2-yl)-7-[4-hydroxy-4-(hydroxymethyl)piperidin-1-yl]-4-oxo-1-(2,4,6-trifluorophenyl)-1,4-dihydro-1,8-naphthyridine-3-carboxamide]	7.52	100
O=C(NC(C(F)(F)F)C(F)(F)F)c1cn(-c2ncc(F)cc2F)c2nc(N3CCCC[C@@H]3CO)c(F)cc2c1=O [Example 190, 1-(3,5-Difluoropyridin-2-yl)-6-fluoro-N-(1,1,1,3,3,3-hexafluoropropan-2-yl)-7-[(2R)-2-(hydroxymethyl)piperidin-1-yl]-4-oxo-1,4-dihydro-1,8-naphthyridine-3-carboxamide]	7.08	100
O=C(NC(C(F)(F)F)C(F)(F)F)c1cn(-c2c(F)cc(F)cc2F)c2nc(N3CCC(CO)(CO)CC3)c(F)cc2c1=O [Example 191, 7-[4,4-bis(hydroxymethyl)piperidin-1-yl]-6-fluoro-N-(1,1,1,3,3,3-hexafluoropropan-2-yl)-4-oxo-1-(2,4,6-trifluorophenyl)-1,4-dihydro-1,8-naphthyridine-3-carboxamide]	7.32	100
CC(NC(=O)c1cn(-c2c(F)cc(F)cc2F)c2nc(N3CCCC(O)(CO)C3)c(F)cc2c1=O)C(F)(F)C(F)(F)F (stereo not shown) [Example 192, 6-Fluoro-7-[3-hydroxy-3-(hydroxymethyl)piperidin-1-yl]-4-oxo-N-[3,3,4,4,4-pentafluorobutan-2-yl]-1-(2,4,6-trifluorophenyl)-1,4-dihydro-1,8-naphthyridine-3-carboxamide]	6.89	100
CC(C)(NC(=O)c1cn(-c2c(F)cc(F)cc2F)c2nc(N3CC[C@H](O)[C@@H]3CO)c(F)cc2c1=O)C(F)(F)C(F)(F)F [Example 193, 6-Fluoro-7-[(2S,3S)-3-hydroxy-2-(hydroxymethyl)pyrrolidin-1-yl]-4-oxo-N-(3,3,4,4,4-pentafluoro-2-methylbutan-2-yl)-1-(2,4,6-trifluorophenyl)-1,4-dihydro-1,8-naphthyridine-3-carboxamide]	7.49	100
O=C(NC(C(F)(F)F)C(F)(F)F)c1cn(-c2ncc(F)cc2F)c2nc(N3CCC(CO)(CO)CC3)c(F)cc2c1=O [Example 195, 7-[4,4-bis(hydroxymethyl)piperidin-1-yl]-1-(3,5-difluoropyridin-2-yl)-6-fluoro-N-(1,1,1,3,3,3-hexafluoropropan-2-yl)-4-oxo-1,4-dihydro-1,8-naphthyridine-3-carboxamide]	7.24	100
O=C(NC(C(F)(F)F)C(F)(F)F)c1cn(-c2c(F)cc(F)cc2F)c2nc(N3CC4(COC4)C3)c(F)cc2c1=O [Example 196, 6-Fluoro-N-(1,1,1,3,3,3-hexafluoropropan-2-yl)-7-(2-oxa-6-azaspiro[3.3]hept-6-yl)-4-oxo-1-(2,4,6-trifluorophenyl)-1,4-dihydro-1,8-naphthyridine-3-carboxamide]	7.20	100
O=C(NC(C(F)(F)F)C(F)(F)F)c1cn(-c2ncc(F)cc2F)c2nc(N3CCC[C@@H]3CO)c(F)cc2c1=O [Example 197, 1-(3,5-Difluoropyridin-2-yl)-6-fluoro-N-(1,1,1,3,3,3-hexafluoropropan-2-yl)-7-[(2R)-2-(hydroxymethyl)pyrrolidin-1-yl]-4-oxo-1,4-dihydro-1,8-naphthyridine-3-carboxamide]	7.29	100
O=C(NC(C(F)(F)F)C(F)(F)F)c1cn(-c2ncc(F)cc2F)c2nc(N3CCC(O)(CO)CC3)c(F)cc2c1=O [Example 198, 1-(3,5-Difluoropyridin-2-yl)-6-fluoro-N-(1,1,1,3,3,3-hexafluoropropan-2-yl)-7-[4-hydroxy-4-(hydroxymethyl)piperidin-1-yl]-4-oxo-1,4-dihydro-1,8-naphthyridine-3-carboxamide]	7.48	100
O=C(NC(C(F)(F)F)C(F)(F)F)c1cn(-c2c(F)cc(F)cc2F)c2nc(N3CCC[C@@H]3CO)c(F)cc2c1=O [Example 199, 6-Fluoro-N-(1,1,1,3,3,3-hexafluoropropan-2-yl)-7-[(2R)-2-(hydroxymethyl)pyrrolidin-1-yl]-4-oxo-1-(2,4,6-trifluorophenyl)-1,4-dihydro-1,8-naphthyridine-3-carboxamide]	7.85	100
CC(NC(=O)c1cn(-c2c(F)cc(F)cc2F)c2nc(N3CCNCC(O)C3)c(F)cc2c1=O)C(F)(F)C(F)(F)F (stereo not shown) [Example 200, 6-Fluoro-7-[6-hydroxy-1,4-diazepan-1-yl]-4-oxo-N-[3,3,4,4,4-pentafluorobutan-2-yl]-1-(2,4,6-trifluorophenyl)-1,4-dihydro-1,8-naphthyridine-3-carboxamide]	6.92	73
C[C@@H](NC(=O)c1cn(-c2c(F)cc(F)cc2F)c2nc(N3C[C@@H](O)[C@H](O)C3)c(F)cc2c1=O)C(F)(F)F [Example 219, 7-[(3R,4R)-3,4-dihydroxypyrrolidin-1-yl]-6-fluoro-4-oxo-1-(2,4,6-trifluorophenyl)-N-[(2R)-1,1,1-trifluoropropan-2-yl]-1,4-dihydro-1,8-naphthyridine-3-carboxamide]	7.78	91
O=C(NCC(F)(F)F)c1cn(-c2c(F)cc(F)cc2F)c2nc(N3C[C@@H](O)[C@H](O)C3)c(F)cc2c1=O [Example 220, 7-[(3R,4R)-3,4-dihydroxypyrrolidin-1-yl]-6-fluoro-4-oxo-N-(2,2,2-trifluoroethyl)-1-(2,4,6-trifluorophenyl)-1,4-dihydro-1,8-naphthyridine-3-carboxamide]	7.10	85
O=C(NCC(F)(F)F)c1cn(-c2c(F)cc(F)cc2Cl)c2nc(N3C[C@@H](O)[C@H](O)C3)c(F)cc2c1=O [Example 221, 1-(2-Chloro-4,6-difluorophenyl)-7-[(3R,4R)-3,4-dihydroxypyrrolidin-1-yl]-6-fluoro-4-oxo-N-(2,2,2-trifluoroethyl)-1,4-dihydro-1,8-naphthyridine-3-carboxamide]	7.51	85
C[C@H](NC(=O)c1cn(-c2c(F)cc(F)cc2Cl)c2nc(N3C[C@@H](O)[C@H](O)C3)c(F)cc2c1=O)C(F)(F)F [Example 224, 1-(2-Chloro-4,6-difluorophenyl)-7-[(3R,4R)-3,4-dihydroxypyrrolidin-1-yl]-6-fluoro-4-oxo-N-[(2S)-1,1,1-trifluoropropan-2-yl]-1,4-dihydro-1,8-naphthyridine-3-carboxamide]	8.00	96
C[C@@H](NC(=O)c1cn(-c2c(F)cc(F)cc2Cl)c2nc(N3C[C@@H](O)[C@H](O)C3)c(F)cc2c1=O)C(F)(F)F [Example 227, 1-(2-Chloro-4,6-difluorophenyl)-7-[(3R,4R)-3,4-dihydroxypyrrolidin-1-yl]-6-fluoro-4-oxo-N-[(2R)-1,1,1-trifluoropropan-2-yl]-1,4-dihydro-1,8-naphthyridine-3-carboxamide]	7.96	94
O=C(N[C@@H](C1CC1)C(F)(F)F)c1cn(-c2c(F)cc(F)cc2F)c2nc(N3CCCC3)c(F)cc2c1=O [Example 231, N-[(1S)-1-cyclopropyl-2,2,2-trifluoroethyl]-6-fluoro-4-oxo-7-(pyrrolidin-1-yl)-1-(2,4,6-tri-fluorophenyl)-1,4-dihydro-1,8-naphthyridine-3-carboxamide]	8.32	82
CC(NC(=O)c1cn(-c2c(F)cc(F)cc2F)c2nc(N3CCC4(C3)NC(=O)N(C)C4=O)c(F)cc2c1=O)C(F)(F)C(F)(F)F (stereo not shown) [Example 234, 6-Fluoro-7-(3-methyl-2,4-dioxo-1,3,7-triazaspiro[4.4]non-7-yl)-4-oxo-N-[3,3,4,4,4-pentafluorobutan-2-yl]-1-(2,4,6-trifluorophenyl)-1,4-dihydro-1,8-naphthyridine-3-carboxamide]	8.01	90
CC(NC(=O)c1cn(-c2c(F)cc(F)cc2F)c2nc(N3CCC4(C3)NC(=O)NC4=O)c(F)cc2c1=O)C(F)(F)C(F)(F)F (stereo not shown) [Example 235, 7-(2,4-Dioxo-1,3,7-triazaspiro[4.4]non-7-yl)-6-fluoro-4-oxo-N-[3,3,4,4,4-pentafluorobutan-2-yl]-1-(2,4,6-trifluorophenyl)-1,4-dihydro-1,8-naphthyridine-3-carboxamide]	8.40	92
